Laboratory results: patent US7204984B2, “Acetyllysine-recognizing monoclonal antibody and process for producing the same” (Japan Science and Technology Corporation, priority 2001, dated 2007)
Non-standard residues stand in square brackets, D forms with d. Residues, ends and D or L forms follow the SMILES beside them. *: point of attachment. Asu = N[C@@H](CCCCCC(=O)O)C(=O)O; NHOH = ON*

Tested on: histone-deacetylase
Test: Histone acetylation in cells treated with CHAP31 (Western blotting)
Format: cell-based
Details: 1 μM, 24 hours, detected with Clone-1 antibody
Experimental: Five types of cells, B16/BL6, MOLT-4F, HeLa-S3, COS-1, and COS-7 were treated with, 1 μM of histone-deacetylase inhibitor, CHAP31, for 24 hours, and then cell lysates were prepared and developed on an electrophoresis, followed by detecting acetylated proteins using the above four antibodies as primary antibodies. In FIGS. 2, A, B, C, and D indicate the results of the detections using Clone-1, Clone-2, Clone-3, and Clone-4, respectively. The concentration of the primary antibodies used for the Western blotting were 107 ng/ml, 65.7 ng/ml, 258 ng/ml, and 158 ng/ml, respectively, and each of these concentration provide the same reactivity (A492=1) in ELISA where acetylated bovine serum albumin was immobilized. The total cell lysates were prepared from the cells (+) after subjecting each cell in the 1 μM CHAP31 treatment for 24 hours or the cells (−) without the treatment. In each lane, 20 μg of protein was loaded. Five types of cells being used were 1: B16/BL6, 2: MOLT-4F, 3: HeLa-S3, 4: COS-1, and 5: COS-7, respectively.

Structure (SMILES): CC[C@H](C)[C@@H]1NC(=O)[C@@H](Cc2ccc(OC)cc2)NC(=O)[C@H](CCCCCC(=O)NO)NC(=O)[C@H]2CCCN2C1=O [CHAP31] (cyclo([Asu](NHOH)[dY](Me)I[dP]))
- acetylation of histone: increased
